Measurements as given in article PMC9721025, “Pharmacokinetic study of the main components of Tanreqing capsules and Tanreqing injections in beagles by liquid chromatography–tandem mass spectrometry” (Chinese Medicine, 2022).
Read-outs that look alike come from different tables or passages of the source.

Legend:
[1] = Tanreqing injection, cited from earlier work
[2] = Pharmacokinetics in beagles, multiple-dose regimen (once per day for 7 days) of TRQI or TRQC, plasma LC-MS/MS; type: in vivo; conditions: beagle, dog
Protocol: (§1) 100 μL plasma sample was drawn and transferred to 1.5 mL centrifuge tube prior to 300 μL protein precipitant (3:1 [v/v] methanol/acetonitrile, containing 0.1% formic acid and 100 ng/mL IS) was added, and then the sample was vortex-mixed for 3 min. The mixture was centrifuged at 20,000 ×g for 10 min, and 100 μL supernatant was transferred to the injection vial and analyzed directly by LC–MS/MS.
(§2) This study was carried out in six beagles (three males and three females, 9.0–12.0 kg each), that were purchased from Junda Pet Hospital (Shanghai, China). This experimental protocol was approved by the Experimental Animal Ethics Committee of the Naval Military Medical University (Shanghai, China).
After the end of the single-dose experiment, the dogs in group one were given 0.5 mL/kg injection of TRQI once per day for 7 days following the wash out period, and the dogs in group two were given 0.09 g/kg TRQC once per day for 7 days. After the seventh administration, blood samples were collected at 0, 10, 20, and 40 min and then at 1, 1.5, 2, 2.5, 3, 4, 6, 8, 12, and 24 h (a total of 14 time points) and were processed as described in “Single-dose regimen” section. The resulting plasma samples were used to determine the steady-state plasma concentration of TRQI and TRQC. A crossover study was again carried out in both groups, as described in “Single-dose regimen” section, after a 7-day washing period.
(§3) All data obtained were analyzed using Drug and Statistics (DAS) 2.0 software (Chinese Society of Pharmacology), and a non-compartment analysis was used to calculate plasma pharmacokinetic parameters. The principal components of TRQI and TRQC were compared with an analysis of variance (ANOVA) and/or a two-tailed student-t test.

[3] = Stability of analytes in dog plasma (QC samples); type: in vitro ADME
Protocol: The stock solutions of all analytes were further mixed and diluted with methanol/water (10:90, v/v) solution to prepare the working solutions. […] The QC samples were stored in a refrigerator at – 80 °C until retrieval (see Additional file 1). The stability, which includes short-term stability (6 h at room temperature), long-term stability (− 80 °C for 30 days in the refrigerator), and freeze–thaw stability (three cycles from − 80 °C to room temperature), were assessed using QC samples at three concentration levels in three replicates. […] Similarly, there were no obvious effects on the analysis results of the samples with respect to short-term stability or long-term storage.

[4] = Pharmacokinetics in beagles, single-dose regimen of TRQI (i.v.) or TRQC (oral), plasma LC-MS/MS; type: in vivo, beagle; conditions: for AUC(0-t) / Cmax / Tmax / half-life: beagle, dog, plasma; for AUC(0-t): read-out: AUC0–24 h; for Cmax / Tmax / half-life: mean of six beagles
Protocol: as §1, §2
The six healthy beagles were divided into two groups: beagles 1–3 were all male and were assigned to the first group, and beagles 4–6 were all females and assigned to the second group. The two-cycle, crossover study was designed with a 7-day wash out period. For the single-administration process, the dogs in the first group were injected intravenously with 0.5 mL/kg TRQI (one-third of the normal daily dose), and blood samples were collected at 0, 5, 10, 15, 20, 30, and 45 min and then at 1, 2, 4, 6, 8, 12, and 24 h (a total of 14 time points) after injection. For each blood sample, 1 mL of blood was collected from the forelimb vein in heparin-treated tubes. The dogs in the second group were orally administrated 0.09 g/kg TRQC (one-third of the normal daily dose, and blood samples were collected in the same manner at 0, 10, 20, and 40 min and then at 1, 1.5, 2, 2.5, 3, 4, 6, 8, 12, and 24 h (a total of 14 time points). All blood samples were centrifuged at 4000 × g for 5 min, and each supernatant was collected and aliquoted. After a 7-day wash out period, the dogs in each group were administrated the other Tanreqing formulation in a crossover design, and blood samples were collected and processed in the same way.
as §3

[5] = both sexes, iv, TRQI 0.5 mL/kg once per day for 7 days, mean
[6] = both sexes, po, TRQC 0.09 g/kg once per day for 7 days, mean
[7] = n = 3, high QC: nominal 200 ng/mL baicalin, 1000 ursodeoxycholic acid, 100 chenodeoxycholic acid and chlorogenic acid
[8] = n = 3, low QC: nominal 4 ng/mL baicalin, 20 ursodeoxycholic acid, 2 chenodeoxycholic acid and chlorogenic acid
[9] = n = 3, middle QC: nominal 20 ng/mL baicalin, 100 ursodeoxycholic acid, 10 chenodeoxycholic acid and chlorogenic acid
[10] = both sexes, iv, single i.v. dose of TRQI 0.5 mL/kg
[11] = both sexes, single oral dose of TRQC 0.09 g/kg

For `C[C@H](CCC(=O)O)[C@H]1CC[C@H]2[C@@H]3[C@@H](O)C[C@@H]4C[C@H](O)CC[C@]4(C)[C@H]3CC[C@]12C` [Ursodeoxycholic acid, ursodeoxycholic acid], the t1/2 ([1]; Hu's study) is given as 0.933 h, the t1/2 ([1]; another study) is given as 0.233 h and the AUC(0-inf) ([2]; both sexes, iv, 0.5 mL/kg, TRQI 0.5 mL/kg for 7 days, Mean) is given as 19100 ng·h/mL. The AUC(0-t) ([2]; both sexes, iv, 0.5 mL/kg, TRQI 0.5 mL/kg for 7 days, Mean, read-out: AUC0–24 h) was 16400 ng·h/mL, the Cmax at 7 days [2, 5] was 5060 ng/mL and the half-life at 7 days [2, 5] was 6.84 h. For the same molecule, the AUC(0-inf) ([2]; both sexes, po, 0.09 g/kg, TRQC 0.09 g/kg for 7 days, Mean) was 35300 ng·h/mL, the AUC(0-t) ([2]; both sexes, po, 0.09 g/kg, TRQC 0.09 g/kg for 7 days, Mean, read-out: AUC0–24 h) was 28500 ng·h/mL and the Cmax at 7 days [2, 6] was 3400 ng/mL. It also gave a Tmax at 7 days [2, 6] of 5.69 h, a half-life at 7 days [2, 6] of 12 h and an AUC(0-inf) ([2]; female, iv, 0.5 mL/kg, TRQI 0.5 mL/kg for 7 days, beagle No. 4) of 14900 ng·h/mL. It also gave an AUC(0-t) ([2]; female, iv, 0.5 mL/kg, TRQI 0.5 mL/kg for 7 days, beagle No. 4, read-out: AUC0–24 h) of 4740 ng·h/mL, an AUC(0-inf) ([2]; female, iv, 0.5 mL/kg, TRQI 0.5 mL/kg for 7 days, beagle No. 5) of 4220 ng·h/mL and an AUC(0-t) ([2]; female, iv, 0.5 mL/kg, TRQI 0.5 mL/kg for 7 days, beagle No. 5, read-out: AUC0–24 h) of 2560 ng·h/mL. It also gave an AUC(0-inf) ([2]; female, iv, 0.5 mL/kg, TRQI 0.5 mL/kg for 7 days, beagle No. 6) of 2810 ng·h/mL, an AUC(0-t) ([2]; female, iv, 0.5 mL/kg, TRQI 0.5 mL/kg for 7 days, beagle No. 6, read-out: AUC0–24 h) of 2670 ng·h/mL and an AUC(0-inf) ([2]; female, po, 0.09 g/kg, TRQC 0.09 g/kg for 7 days, beagle No. 4) of 112000 ng·h/mL. For the same molecule, the AUC(0-t) ([2]; female, po, 0.09 g/kg, TRQC 0.09 g/kg for 7 days, beagle No. 4, read-out: AUC0–24 h) was 109000 ng·h/mL, the AUC(0-inf) ([2]; female, po, 0.09 g/kg, TRQC 0.09 g/kg for 7 days, beagle No. 5) was 20100 ng·h/mL and the AUC(0-t) ([2]; female, po, 0.09 g/kg, TRQC 0.09 g/kg for 7 days, beagle No. 5, read-out: AUC0–24 h) was 10500 ng·h/mL. The AUC(0-inf) ([2]; female, po, 0.09 g/kg, TRQC 0.09 g/kg for 7 days, beagle No. 6) was 45000 ng·h/mL, the AUC(0-t) ([2]; female, po, 0.09 g/kg, TRQC 0.09 g/kg for 7 days, beagle No. 6, read-out: AUC0–24 h) was 17600 ng·h/mL and the AUC(0-inf) ([2]; male, iv, 0.5 mL/kg, TRQI 0.5 mL/kg for 7 days, beagle No. 1) was 75900 ng·h/mL. It also gave an AUC(0-t) ([2]; male, iv, 0.5 mL/kg, TRQI 0.5 mL/kg for 7 days, beagle No. 1, read-out: AUC0–24 h) of 72400 ng·h/mL, an AUC(0-inf) ([2]; male, iv, 0.5 mL/kg, TRQI 0.5 mL/kg for 7 days, beagle No. 2) of 1860 ng·h/mL and an AUC(0-t) ([2]; male, iv, 0.5 mL/kg, TRQI 0.5 mL/kg for 7 days, beagle No. 2, read-out: AUC0–24 h) of 1720 ng·h/mL. For the same molecule, the AUC(0-inf) ([2]; male, iv, 0.5 mL/kg, TRQI 0.5 mL/kg for 7 days, beagle No. 3) was 14600 ng·h/mL, the AUC(0-t) ([2]; male, iv, 0.5 mL/kg, TRQI 0.5 mL/kg for 7 days, beagle No. 3, read-out: AUC0–24 h) was 14500 ng·h/mL and the AUC(0-inf) ([2]; male, po, 0.09 g/kg, TRQC 0.09 g/kg for 7 days, beagle No. 1) was 2940 ng·h/mL. The AUC(0-t) ([2]; male, po, 0.09 g/kg, TRQC 0.09 g/kg for 7 days, beagle No. 1, read-out: AUC0–24 h) was 2760 ng·h/mL, the AUC(0-inf) ([2]; male, po, 0.09 g/kg, TRQC 0.09 g/kg for 7 days, beagle No. 2) was 24400 ng·h/mL and the AUC(0-t) ([2]; male, po, 0.09 g/kg, TRQC 0.09 g/kg for 7 days, beagle No. 2, read-out: AUC0–24 h) was 23900 ng·h/mL. For the same molecule, the AUC(0-inf) ([2]; male, po, 0.09 g/kg, TRQC 0.09 g/kg for 7 days, beagle No. 3) was 7520 ng·h/mL, the AUC(0-t) ([2]; male, po, 0.09 g/kg, TRQC 0.09 g/kg for 7 days, beagle No. 3, read-out: AUC0–24 h) was 7190 ng·h/mL and the “Freeze-thaw stability (3 cycles) Mean ± S.D. concentration” value (“Freeze-thaw stability” for short) [3, 7] was 1048.41 ± 75.10 ng/mL. The “Long-term stability (30 days at – 80 °C) Mean ± S.D. concentration” value (“Long-term stability” below) [3, 7] was 1081.75 ± 20.70 ng/mL, the “Short-term stability (6 h at room temperature) Mean ± S.D concentration” value (“Short-term stability” for short) [3, 7] was 1104.46 ± 16.75 ng/mL and the “Freeze-thaw stability” value [3, 8] was 18.47 ± 1.66 ng/mL. For the same molecule, the “Long-term stability” value [3, 8] was 18.77 ± 0.41 ng/mL, the “Short-term stability” value [3, 8] was 19.38 ± 0.97 ng/mL and the “Freeze-thaw stability” value [3, 9] was 87.08 ± 1.95 ng/mL. The “Long-term stability” value [3, 9] was 90.80 ± 1.57 ng/mL, the “Short-term stability” value [3, 9] was 97.83 ± 0.62 ng/mL and the “time at which oral absorption reached a peak” value ([4]; TRQC, oral, dogs) was about 5 h. The AUC(0-t) ([4]; both sexes, iv, 0.5 mL/kg, single TRQI 0.5 mL/kg, Mean) was 4080 ng·h/mL, the Cmax [4, 10] was 2750 ng/mL and the Tmax [4, 10] was 0.08 h. For the same molecule, the half-life [4, 10] was 27.7 h, the AUC(0-t) ([4]; both sexes, po, 0.09 g/kg, single TRQCs 0.09 g/kg, Mean) was 4400 ng·h/mL and the Cmax [4, 11] was 1330 ng/mL. For the same molecule, the Tmax [4, 11] was 5.94 h, the half-life [4, 11] was 10.4 h and the AUC(0-t) ([4]; female, iv, 0.5 mL/kg, single TRQI 0.5 mL/kg, beagle No 4) was 898 ng·h/mL. It also gave an AUC(0-t) ([4]; female, iv, 0.5 mL/kg, single TRQI 0.5 mL/kg, beagle No 5) of 1160 ng·h/mL, an AUC(0-t) ([4]; female, iv, 0.5 mL/kg, single TRQI 0.5 mL/kg, beagle No 6) of 992 ng·h/mL and an AUC(0-t) ([4]; female, po, 0.09 g/kg, single TRQCs 0.09 g/kg, beagle No 4) of 11300 ng·h/mL. For the same molecule, the AUC(0-t) ([4]; female, po, 0.09 g/kg, single TRQCs 0.09 g/kg, beagle No 5) was 1880 ng·h/mL, the AUC(0-t) ([4]; female, po, 0.09 g/kg, single TRQCs 0.09 g/kg, beagle No 6) was 3700 ng·h/mL and the AUC(0-t) ([4]; male, iv, 0.5 mL/kg, single TRQI 0.5 mL/kg, beagle No 1) was 18200 ng·h/mL. The AUC(0-t) ([4]; male, iv, 0.5 mL/kg, single TRQI 0.5 mL/kg, beagle No 2) was 1100 ng·h/mL, the AUC(0-t) ([4]; male, iv, 0.5 mL/kg, single TRQI 0.5 mL/kg, beagle No 3) was 2120 ng·h/mL and the AUC(0-t) ([4]; male, po, 0.09 g/kg, single TRQCs 0.09 g/kg, beagle No 1) was 1700 ng·h/mL. It also gave an AUC(0-t) ([4]; male, po, 0.09 g/kg, single TRQCs 0.09 g/kg, beagle No 2) of 3190 ng·h/mL and an AUC(0-t) ([4]; male, po, 0.09 g/kg, single TRQCs 0.09 g/kg, beagle No 3) of 4590 ng·h/mL.
